According to US9289443B2, “Pharmaceutical composition and method for preventing or treating hepatitis C” (INDUSTRIAL TECHNOLOGY RESEARCH INSTITUTE, priority 2010, dated 2016):
Like-named read-outs stand apart in the source and are kept apart here.

Assays:
[1] = tested on: HCV replicon system (Huh-luc/neo-ET cell carrying I389luc-ubi-NS3-3'/ET); assay: Inhibition of the HCV replication by determining the firefly luciferase activity (HCV replicon system); format: cell-based, Hepatitis C virus; conditions: for EW (CC50/IC50): ratio of CC50/IC50
Source text: HCV replicon system was used to test the effects of compounds on the treatment and prevention of hepatitis C. The HCV replicon system has been acknowledged as a screening tool for new drugs (Lohmann, V. et al., 1999, Replication of subgenomic hepatitis C virus RNAs in hepatoma cell line, Science. Vol. 285, 110-113; Bartenschlager, R. 2002, Hepatitis C virus replicons: potential role for drug development, Nature Reviews/Drug Discovery. Vol. 1, 911-916; Vorlijk, J. M. et al., 2003, A replicon-based bioassay for the measurement of interferons in patients with chronic hepatitis C, Journal of Virological Methods. 110:201-209). The HCV replicon system includes a Huh-luc/neo-ET cell carrying I389luc-ubi-NS3-3′/ET gene construct which monitors the replicative capability of the HCV. In the HCV replicon system, a firefly luciferase-ubiquitin-neomycin fusion protein is expressed by the translation of the internal ribosomal entry site (IRES) of the HCV, and the hepatitis C viral nonstructural proteins (NS3-5B), which includes protease, helicase and polymerase, are expressed by the translation of the IRES of the encephalomyocarditis virus (EMCV).
The IRES of the hepatitis C virus or the hepatitis C viral nonstructural proteins consist of a replication complex. When the replication complex is affected by the candidate compound, the activity of the HCV replicon system is inhibited and the activity of the luciferase is reduced. Accordingly, the inhibition of the HCV can be estimated by determining the activity of the intensity of the luciferase expressed by the Huh-luc/noe-ET cell.
Inhibition of the HCV Replication by Determining the Firefly Luciferase Activity
(§1) Huh-luc/neo-ET cells with a concentration of 2.5×10^4 cells/100 μl/well were seeded into a 96 well culture plate (Corning Incorporation COSTAR, 3599) and placed into a cell incubator for culturing.
The oleanolic acid derivatives as listed in Table 2 were co-cultured with Huh-luc/neo-ET cells for 2 days. The mediums were washed twice by 100 μl of 1×PBS (1 mM KH2PO4, 10 mM Na2HPO4, 137 mM NaCl, 2.7 mM KCl) and PBS was removed. 35 μl of 1× passive lysis buffer (Promega, E1941) was added to the cells and vortexed for 10 minutes to thoroughly lysis the cells.
30 μl/well of the cell suspension was then added to a 96 well white plate (NUNC, 236108) for the measurement of the luciferase activity. Subsequently, 40 μl/well of luminescence analysis buffer and 20 μl/well of luminescence substrate (1 mM D-Luciferin) were added into the 96 well white plates. The luciferase activity (Rlu/s) was measured by a microplate luminescence meter (Berthold, MPL4) immediately.
The luciferase activity of the control was set as a standard to calculate the inhibition rates (%) of HCV of the experiment groups. The inhibition rates was calculated by the following formula: […]
After the test compounds were serial diluted and the inhibition rates of the HCV replication were determined at different concentrations, the concentration at 50% inhibition of the HCV replication (IC50) was calculated by grafit5 software (Erithacus Software).
For each experiment, 0.5 ng/ml and 0.1 ng/ml of the PEG IFN alpha-2a were used as positive controls for the IC50 test. Meanwhile, 1 μg/ml of cyclosporine A (CsA) was also used as a positive control for the IC50 test.

Huh-luc/neo-ET cells = assay: Cell cytotoxic test (MTT) on Huh-luc/neo-ET cells; format: cell-based; conditions: concentration for 15% cell kill, two-day culture
Method: (§2) Cell Cytotoxic Test on Huh-luc/noe-ET Cells
as §1
(§3) The next day, the oleanolic acid derivatives as listed in the following Tables 1 and 2 were diluted with a DMEM culture medium to the concentrations of 28.73 μg/ml, 9.57 μg/ml, 3.19 μg/ml, 1.06 μg/ml, 0.35 μg/ml, 0.11 μg/ml, 0.039 μg/ml and 0.013 μg/ml, respectively, or diluted to the concentrations of 114.92 μg/ml, 38.33 μg/ml, 12.77 μg/ml, 4.25 μg/ml, 1.42 μg/ml, 0.46 μg/ml, 0.16 μg/ml and 0.057 μg/ml, respectively. The initial medium in the 96 well culture plate was sucked out by a vacuum pump (DOAT-704AA) without removing the cells. Then, the culture medium containing the oleanolic acid derivatives were added into the 96 well culture plate containing 100 μl/well of the cells as the experiment groups, while the untreated culture mediums were added to the cells as a control.
(§4) After a two-day culture, the medium was removed and each well containing cells was washed by 100 μl of 1×PBS (1 mM KH2PO4, 10 mM Na2HPO4, 137 mM NaCl, 2.7 mM KCl) twice. Precipitates were recorded and PBS was removed. 50 μl of the medium containing 0.5 mg/ml of MTT (Sigma, M2128) was added into each well of the 96 well culture plate. The 96 well culture plate was placed in a CO2 culture incubator for 1 hour. Subsequently, 150 μl of DMSO (Riedel-de Haül, 60153) was added to each well of the 96 well culture plate and vortexed (KS shaker Type 670) to thoroughly mix the resulting purple precipitates. The 96 well culture plate was then placed in a continuous wave length microwell plate analysis system (Molecular Devices, SPECTRAMAX 190) to measure the absorbance of cells at a wavelength of 560 nm.
(§5) The average absorbance of the control was set as 100% of the cell survival rates (%) to calculate the cell survival rates (%) of the experiment groups with different concentrations of the oleanolic acid derivatives.
(§6) The cell survival rate was calculated by the following formula: Absorbance of the experiment group/Absorbance of the control×100%
(§7) The data of the cell survival rates for all experiment groups were plotted on an x-y graph to see the distribution. A trend line was obtained. […]

[2] = Cell cytotoxic test (MTT) on Huh-luc/neo-ET cells; format: cell-based; conditions: human, concentration for 50% cell kill, two-day culture
Method: as §2, §1, §3, §4, §5, §6, §7

[3] = Hepatitis C virus, Huh-luc/neo-ET, 48 h, compound concentration 10 μM, 2 days co-culture, luciferase activity, read-out: Inhibition rate (%)
[4] = Hepatitis C virus, concentration for 50% inhibition of the HCV replication, Huh-luc/neo-ET replicon cells, read-out: IC50

Compound	inhibition at 10 µM [1, 3] [%]	IC50 [1, 4] [µM]	EW (CC50/IC50) [1]	CC15 (Huh-luc/neo-ET cells) [µM]	CC50 at 2 days [2] [µM]	IC50 ([1]; Hepatitis C virus, Huh-luc/neo-ET) [µM]	inhibition at 10 µM ([1]; Hepatitis C virus, Huh-luc/neo-ET, 48 h, read-out: Inhibition rate (%)) [%]	inhibition at 2 µM ([1]; Hepatitis C virus, Huh-luc/neo-ET, 48 h, compound concentration 2 μM, 2 days co-culture, luciferase activity, read-out: Inhibition rate (%)) [%]	inhibition at 1 µM ([1]; Hepatitis C virus, Huh-luc/neo-ET, 48 h, compound concentration 1 μM, 2 days co-culture, luciferase activity, read-out: Inhibition rate (%)) [%]	inhibition at 4 µM ([1]; Hepatitis C virus, Huh-luc/neo-ET, 48 h, compound concentration 4 μM, 2 days co-culture, luciferase activity, read-out: Inhibition rate (%)) [%]	inhibition at 15 µM ([1]; Hepatitis C virus, Huh-luc/neo-ET, 48 h, compound concentration 15 μM, 2 days co-culture, luciferase activity, read-out: Inhibition rate (%)) [%]
C=CC(C)(O)CC/C=C(\C)C(=O)O[C@H]1[C@H](O)[C@@H](CO)OC(OC(=O)[C@]23CCC(C)(C)CC2C2=CCC4[C@@]5(C)CC[C@H](OC6O[C@H](COC7OC[C@H](O)[C@H](O)[C@H]7OC7OC[C@@H](O)[C@H](O)[C@H]7O)[C@@H](O)[C@H](O)[C@H]6O)C(C)(C)C5CC[C@@]4(C)[C@]2(C)CC3)[C@@H]1OC1OC(C)C(OC2OC[C@@H](O)[C@H](OC3OC[C@@H](O)[C@H](O)[C@H]3O)[C@H]2O)C(O)C1O (stereo partly shown) [A25]	96.5 ± 0.8	0.36 ± 0.016	178.08	10.29	64.1	–	–	–	–	–	–
C/C=C(/C)C(=O)OC1CC(C)(C)CC2C3=CCC4C5(C)CCC(OC6OC(C)C(OC7OC(C(=O)O)C(O)C(OC8OC(CO)C(O)C(O)C8OC8OC(CO)C(O)C(O)C8O)C7O)C(O)C6O)C(C)(C)C5CCC4(C)C3(C)C(OC(=O)/C=C/C=C/C=C/CCC)C(OC(C)=O)C12CO (stereo not shown) [A15]	–	–	25.38	>100	> 100	3.94 ± 0.13	92 ± 1.6	–	–	–	–
CC1(C)CC2C3=CCC4[C@@]5(C)CC[C@H](OC6OCC(O)C(OC7OC(CO)C(O)C(O)C7O)C6O)C(C)(C)C5CC[C@@]4(C)[C@]3(C)C[C@H](O)[C@@]2(CO)[C@H](OC(=O)c2ccccc2)C1 (stereo partly shown) [A22]	-0.8 ± 5.7	–	–	8.62	40	–	–	–	–	–	–
CC(=O)OC1C(OC(C)=O)[C@]2(CO)C(OC(C)=O)C[C@]3(C)C(=CCC4[C@@]5(C)CC[C@H](OC6OC(C(C)=O)C(O)C(OC7OC(CO)C(O)C(O)C7O)C6O)C(C)(C)C5CC[C@]43C)C2CC1(C)C (stereo partly shown) [A07]	10.3 ± 11.7	–	–	>100	> 100	–	–	–	–	–	–
C=CC(C)(CC/C=C(\CO)C(=O)OC1CC2(C(=O)OC3OCC(OC4CC(CO)C(O)C(OC5OC(CO)C(OC6OC(C)C(O)C(O)C6O)C(O)C5O)C4O)C(O)C3O)CCC3(C)C(=CCC4C5(C)CCC(OC6OC(CO)C(OC7OC(CO)C(O)C(OC8OCC(O)C(O)C8O)C7O)C(O)C6O)C(C)(C)C5CCC43C)C2CC1(C)C)OC1OC(C)C(O)C(O)C1O (stereo not shown) [A27]	96.9 ± 0.6	0.72 ± 0.07	106.56	19.44	76.7	–	–	–	–	–	–
C=CC(C)(O)CCCC(C)C(=O)OC1C(OC2OCC(OC3OC(CO)C(O)C(O)C3O)C(OC3OCC(O)C(OC4OC(CO)C(O)C(O)C4O)C3O)C2O)COC(OC(=O)C23CCC(C)(C)CC2C2=CCC4C5(C)CCC(OC6OC(CO)C(OC7OC(CO)C(O)C(OC8OCC(O)C(O)C8O)C7O)C(O)C6O)C(C)(C)C5CCC4(C)C2(C)CC3O)C1O (stereo not shown) [A10]	–	0.31 ± 0.04	126.13	2.2	39.1	–	–	95.7 ± 0.6	–	–	–
C=CC(C)(O)CC/C=C(\C)C(=O)OCC1OC(OC(=O)C23CCC4(C)C(=CCC5C6(C)CCC(OC7OC(COC8OC(CO)C(O)C(O)C8O)C(OC8OCC(O)C(O)C8OC8OCC(O)C(O)C8O)C(O)C7NC(C)=O)C(C)(C)C6CCC54C)C2CC(C)(C)C(O)C3O)C(OC2OCC(OC3OCC(O)(CO)C3O)C(O)C2O)C(O)C1OC1OC(CO)C(OC(C)=O)C(O)C1O (stereo not shown) [A17]	–	0.057 ± 0.003	317.89	1.49	18.1	–	–	–	94.9 ± 1.2	–	–
CC(=O)NC1C(O[C@H]2CC[C@@]3(C)C(CC[C@]4(C)C3CC=C3C5CC(C)(C)CC[C@]5(C(=O)OC5OC(COC(=O)/C=C/c6ccccc6)C(OC6OC(CO)C(O)C(O)C6OC(C)=O)C(O)C5OC5OCC(OC6OCC(O)(CO)C6O)C(O)C5O)CC[C@]34C)C2(C)C)OC(COC2OCC(O)C(O)C2OC2OCC(O)C(O)C2O)C(OC2OC(CO)C(O)C(O)C2O)C1O (stereo partly shown) [A24]	–	–	–	4.53	14.1	–	–	–	–	54.8 ± 5.4	–
C=CC(C)(O)CC/C=C(\C)C(=O)OC1C(O)C(CO)OC(OC(=O)C23CCC(C)(C)CC2C2=CCC4C5(C)CCC(OC6OC(COC7OCC(OC(C)=O)C(O)C7OC7OC(COC(C)=O)C(O)C(O)C7O)C(O)C(O)C6OC6OCC(O)C(O)C6O)C(C)(C)C5CCC4(C)C2(C)C(O)C3O)C1OC1OCC(OC2OCC(O)C(OC3OCC(O)C(O)C3O)C2O)C(O)C1O (stereo not shown) [A20]	96 ± 1.5	0.087 ± 0.01	576.67	18.85	50.2	–	–	–	–	–	–
CC(=O)OC1C(OC(=O)C(C)C)C2(CO)C(CC1(C)C)C1=CCC3C4(C)CCC(OC5OC(C)C(OC6OC(C(=O)O)C(O)C(OC7OC(CO)C(O)C(O)C7OC7OC(CO)C(O)C(O)C7O)C6O)C(O)C5O)C(C)(C)C4CCC3(C)C1(C)C(O)C2O (stereo not shown) [A13]	–	3.31 ± 0.29	30.21	16.1	100	–	–	–	–	–	93 ± 0.4
C[C@@H]1OC(O[C@H]2C(OC(=O)[C@]34CCC(C)(C)C[C@H]3C3=CC[C@@H]5[C@@]6(C)C[C@H](O)[C@@H]7OC8O[C@H](CO)[C@@H](O)[C@H](O)[C@H]8OC8OC[C@H](O)[C@H](O)[C@H]8OC(=O)CC(C)(O)CC(=O)OC[C@H]7[C@@H]6CC[C@@]5(C)[C@]3(C)CC4)OC[C@H](O)[C@@H]2O)[C@H](O)[C@H](OC2OC[C@@H](O)[C@H](O)[C@H]2O)[C@H]1O (stereo partly shown) [A02]	96.7 ± 0.6	0.34 ± 0.06	44.71	2.9	15.2	–	–	–	–	–	–
CC1(C)CC[C@]2(C(=O)O)CC[C@]3(C)C(=CCC4[C@@]5(C)C[C@@H](O)[C@H](O)[C@@](C)(COC(=O)/C=C/c6ccc(O)cc6)C5CC[C@]43C)C2C1 (stereo partly shown) [A08]	0.4 ± 22	–	–	9.6	72	–	–	–	–	–	–
